Data taken from US11224223B2, “Feeding deterrence of pests such as Hemiptera, Lepidoptera and Coleoptera” (BEDOUKIAN RESEARCH, INC., priority 2012, dated 2022).

Legend:
Type in all cases: in vivo
Dermestid spp. = experiment: Dermestid beetle feeding damage on silk fabric; conditions: 3% compound; undyed silk disks; late instar larvae; 1 week
Method: Dermestid Beetle Feeding Damage on Silk Fabric
For feeding assays, 3% alcohol solutions of the tested compounds are prepared. Disks (4.0 cm in diameter) of undyed silk fabric are dipped in the test solutions or alcohol alone as a control. After the complete evaporation of the solvent, the disks are offered to 10 late instar larvae. All dishes are placed in an incubator. Four replicates are used for each chemical. After 1 week, the remaining uneaten area of each silk disk is measured using a scanner and software. The selective antifeeding rate (%) formula is [(C−T)/(C+T)]×100, and the non-selective antifeeding rate (%) formula is [(C−T)/C)]×100, where C and T are the areas consumed by the control and treated silk disks, respectively.

Sitostroga cerealella = experiment: Feeding repellent assay for Angoumois larva on treated rice; conditions: 10% compound in a 5% Ethanol:95% water solution, third instar larvae, 1 week
Method: Feeding Repellent Assay for Angoumois Larva
(§1) One gram of rice is weighed and treated with 2% by weight of each test chemical or ethanol as a control for each treatment and replicate. The grains are allowed to dry and then weighed again. Treated or control rice grains are placed in a petri dish. Third instar larvae are starved for 8 h and gently introduced into the center of each compartment. 20 larva are screened per treatment, and each experiment is repeated three times. The weight of rice grains is measured again after 1 week. The selective antifeeding rate (%) formula is [(C−T)/(C+T)]×100, and the non-selective antifeeding rate (%) formula is [(C−T)/C)]×100, where C and T are the areas consumed by the control and treated leaf disks, respectively.

Tineola spp. = experiment: Clothes moth feeding damage on silk fabric, choice test; conditions: 3% compound; silk disks; late instar larvae; 24 hours; control 50/50
Method: For feeding assays, 3% alcohol solutions of the tested compounds are prepared. Disks (2.0 cm in diameter) of undyed silk fabric are dipped in the test solutions or alcohol alone as a control. After the complete evaporation of the solvent, the disks are presented in a choice test to 10 late instar Tineola spp. larvae. All dishes are placed in an incubator in the dark. Four replicates are used for each chemical. After 24 hours, the number of individuals choosing to feed on each disk are counted.

saw tooth grain beetles = experiment: Repellency of test compounds on grain beetles, treated corn kernels; conditions: 5% in isopropyl alcohol, 3 week period
Method: Ten replicates of 30 kernels of corn are immersed into the test compound and allowed to dry for 24 hours. The kernels are then transferred to a test container, and 10 saw tooth grain beetles are released. Test containers are secured and left for a 3 week period. At the end of this time, the […] grains are examined for feeding damage. […] Ten additional replicates treated with isopropyl alcohol are prepared to serve as controls.

Plodia interpunctella = experiment: Feeding repellent assay for Indian meal moth larva on treated rice; conditions: 10% compound in a 5% Ethanol:95% water solution, third instar larvae, 1 week
Method: as §1, with “Feeding Repellent Assay for Indian Meal Moth Larva One” for “One”

[1] = test system: Euschistus heros-Neotropical Brown Stink Bugs; experiment: Stink bug feeding damage on soybean pods; conditions: 3% compound, soybean plants at R6 stage, 48 hours
Method: To compare the feeding/resting preference of stink bug adults for different plant parts, 10 pots with soybean plants at the R6 (pod-filling) stage of development are used. 5 pots of soybeans are sprayed with 3% of treatment in a 2% Triton X:water solution and 5 pots of soybean are treated with 2% Triton X:water solution as controls. Thirty stink bugs are placed individually in each cage and allowed to feed for 48 hours. Insects are removed and plant parts are collected for visual analysis of damage. Feeding damage on the pods is counted for both treatments. The selective antifeeding rate (%) formula is [(C−T)/(C+T)]×100, and the non-selective antifeeding rate (%) formula is [(C−T)/C)]×100, where C and T are the numbers of feeding damages on the control and treated plant pods, respectively.

Aphis gossypii = experiment: Melon aphid repellency on leaf choice assays; conditions: 3% compound in a Triton X:Water solution; n=100; control 50/50
Text: Melon Aphid Repellency on Leaf Choice Assays Aphis gossypii are maintained on squash plants. Individual aphids (n=100) are given the choice between leaves with and without repellent treatments. A separate group of aphids are given a choice between untreated vs. untreated leaves as a control. The number of aphids choosing each leaf is counted both choice tests. The number of aphids choosing each treatment is compared to the control to determine the repellent effect.

Popillia japonica = experiment: Japanese beetle feeding damage on basil; conditions: 3% compound; basil leaf disks; adult beetle; 24 h
Method: (§2) Japanese Beetle Feeding Damage on Basil For choice feeding assays, 3% alcohol solutions of the tested compounds are prepared. Disks (4.0 cm in diameter) are cut from basil leaves and are dipped in the test solutions or alcohol alone as a control. After the complete evaporation of the solvent, the disks are offered to 1 adult beetle. All dishes are placed in an incubator. Four replicates are used for each chemical. After 24 h, the remaining uneaten area of each basil leaf disk is measured using a scanner and software. The selective antifeeding rate (%) formula is [(C−T)/(C+T)]×100, and the non-selective antifeeding rate (%) formula is [(C−T)/C)]×100, where C and T are the areas consumed by the control and treated leaf disks, respectively.

granary weevils = experiment: Granary weevil test on treated wheat kernels; conditions: 5% in isopropyl alcohol, 3 week period
Method: Ten replicates of 30 kernels of wheat were immersed into the test compound and allowed to dry for 24 hours. The grains were then transferred to a test container, and 10 granary weevils were released. Test containers were secured and left for a 3 week period. At the end of this time, the wheat grains were examined for developing larvae and damage by larvae. […] Ten additional replicates treated with isopropyl alcohol were prepared to serve as controls.

[2] = test system: Leptinotarsa decemlineata-Colorado Potatoe Beetles; experiment: Choice feeding assay on potato leaf disks; conditions: 3% compound, larvae, 24 h
Method: as §2, with “For” for “Japanese Beetle Feeding Damage on Basil For”, “potato” for “basil”, “10 larvae. Control and treated disks are placed at alternate corners in Petri dishes (150 by 20 mm) lined with moistened filter paper (choice test).” for “1 adult beetle.”, “replicates and 40 larva” for “replicates”, “chemical. In each replicate, the insects are allowed to feed ad libitum for 24 h at 24 C under a 16:8 (L:D) photoperiod.” for “chemical.”

sharpshooters = experiment: Leafhopper repellency on citrus choice assays; conditions: 3% compound; citrus seedlings; 100 sharpshooters per cage; control 50/50
Text: Leafhopper Repellency on Citrus Choice Assays Citrus seedlings are sprayed with either a 3% solution of repellent chemical in a 5%:95% ETOH:Water or only 5%:95% ETOH:Water as a control. Two seedlings are placed in a screen cage, either a treatment vs control tree or a control vs control tree. 100 sharpshooters are released into each cage. The number of sharpshooters choosing each leaf is counted for both choice tests. The number of sharpshooters choosing each treatment is compared to the control to determine if there is a repellent effect.

psyllids = experiment: Psyllid repellency on potato choice assays; conditions: 3% compound; potato plants; 100 psyllids per cage; control 50/50
Text: Psyllid Repellency on Potato Choice Assays
Potato plants are sprayed with either a 3% solution of repellent chemical in a 5%:95% ETOH:Water or only 5%:95% ETOH:Water as a control. Two plants are placed in a screen cage, either a treatment vs control tree or a control vs control tree, 100 psyllids are released into each cage. The number of psyllids choosing each leaf is counted for both choice tests. The number of psyllids choosing each treatment is compared to the control to determine if there is a repellent effect.

CCCCCCCCCC1CCC(=O)O1 (stereo not shown) [Gamma Tridecalactone]
% Repellency (Dermestid spp.): 40%
% Antifeedent Activity (Sitostroga cerealella): 70%
Individuals choosing to feed on each disk: Treated (Tineola spp.): 10
Individuals choosing to feed on each disk: Untreated (Tineola spp.): 90
Increased Repellency vs. Control Repellency (saw tooth grain beetles): 40%
% Antifeedent Activity (Plodia interpunctella): 70%
% Antifeedent Activity [1]: 80%
Number of Aphids Choosing each Treatment: Treated (Aphis gossypii): 20
Number of Aphids Choosing each Treatment: Untreated (Aphis gossypii): 80
% Repellency (Popillia japonica): 40%
Increased Repellency vs. Control Repellency (granary weevils): 40%
% Repellency [2]: 40%
Number of Psyllids Choosing each Treatment: Treated (sharpshooters): 20
Number of Psyllids Choosing each Treatment: Untreated (sharpshooters): 80
Number of Psyllids Choosing each Treatment: Treated (psyllids): 20
Number of Psyllids Choosing each Treatment: Untreated (psyllids): 80
